The source of these data is patent US20240124460A1, “METHODS AND COMPOSITIONS FOR TARGETED PROTEIN DEGRADATION” (Ranok Therapeutics (Hangzhou) Co. Ltd., priority 2020, published 2024).

Where two headings read alike, the source gives them in different places. A value given as a limit tells only on which side of the number the result lay.

One test deals with T1, HSP90α protein (Homo sapiens, UniProt P07900).
T1 construct: purchased BPS Bioscience #50298
In words: HSP90α-binding FP (BODIPY) assay. To be noted: FP competition with BODIPY-labeled RNK04010. The procedure, abridged:
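Fluorescence polarization measured competition with N-terminal human HSP90α, using either FITC-geldanamycin or BODIPY-labelled triazolone RNK04010 as tracer (5 nM final each). Compounds were tested in 2.5-fold dilutions from 20 μM to 5.2 nM, with incubation at 25 °C for 120 min (FITC) or 300 min (BODIPY).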

In the next test the test system is ERBB2. Description: ERBB2 (HER2) flow cytometry protein degradation assay in BT-474 cells. Format: cell-based, human. To be noted: DC50, BT-474 cells, 24 hr. The method, then:
To analyze total ERBB2 expression by flow cytometry, cells were detached with trypsin, washed, counted and treated with 10 μl/10^6 cells PE-conjugated, anti-ERBB2 monoclonal antibody (R&D Systems, #FAB1129P) for 30 min at 25° C. in dark. Cells were then washed, resuspended in 200 μl 1% paraformaldehyde and analyzed by flow cytometry.
% Inhibition=100−(D−B)/(S−B)*100%. • S: Fluorescence intensity of cells with antibody • D: Fluorescence intensity of compound-treated cells with antibody • B: Fluorescence intensity of cells without antibody

Test [1] has as its system MV-4-11 human acute myeloid leukemia. In words: MV-4-11 CCK-8 proliferation assay. Format: cell-based. To be noted: MV-4-11 cells, 72 hr. The method, boiled down:
(§1)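 3-fold dilution series, 20 μM–1.02 nM; ATCC culture conditions; CCK-8 absorbance read-out; % inhibition = 100 − (D−B)/(S−B)×100, S = DMSO cells, B = medium + DMSO, no cells.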

In test [2] the test system is U-87 MG human glioblastoma. Description: U87 MG CCK-8 proliferation assay. In kind it is cell-based. To be noted: U-87 MG cells, read-out: U87MG CCK-8. The method, boiled down: as §1

The compound `CCOc1cc(N2CCC(C(=O)N3CCC(N4CCN(Cc5ccc(-n6c(O)nnc6-c6cc(C(C)C)c(O)cc6O)cc5C(F)(F)F)CC4)CC3)CC2)ccc1Nc1ncc2c(n1)N(C)c1ccccc1C(=O)N2C` [Compound 038, 2-((4-(4-(4-(4-(4-(3-(2,4-dihydroxy-5-isopropylphenyl)-5-hydroxy-4H-1,2,4-triazol-4-yl)-2-(trifluoromethyl)benzyl)piperazin-1-yl)piperidine-1-carbonyl)piperidin-1-yl)-2-ethoxyphenyl)amino)-5,11-dimethyl-5,11-dihydro-6H-benzo[e]pyrimido[5,4-b][1,4]diazepin-6-one] had an IC50 at HSP90α protein of 100 to 1000 nM. Further, in the test on ERBB2, the ERBB2 degradation entry is “B (DC50 = 100-1000 nM)”. Besides, the EC50 in test [1] (Homo sapiens, MV4-11) was below 100 nM; in test [2] (Homo sapiens, U-87 MG, 72 h), above 1000 nM.

Consider `CCCc1cc(-c2nnc(O)n2-c2ccc(CNC(=O)C3CCN(c4ccc(Nc5ncc6c(n5)N(C)c5ccccc5C(=O)N6C)c(OCC)c4)CC3)cc2)c(O)cc1O` [Compound 029, N-(4-(3-(2,4-dihydroxy-5-propylphenyl)-5-hydroxy-4H-1,2,4-triazol-4-yl)benzyl)-1-(4-((5,11-dimethyl-6-oxo-6,11-dihydro-5H-benzo[e]pyrimido[5,4-b][1,4]diazepin-2-yl)amino)-3-ethoxyphenyl)piperidine-4-carboxamide], for which the ERBB2 degradation result in the test on ERBB2 was “B (DC50 = 100-1000 nM)”. The EC50 is 100 to 1000 nM in test [1] (Homo sapiens, MV4-11) and above 1000 nM in test [2] (72 hr).

Compound `CCOc1cc(N2CCC(C(=O)N3CCC(CN4CCN(Cc5ccc(-n6c(C(=O)N[C@H](C)C(F)(F)F)nnc6-c6cc(CC)c(O)cc6O)cc5)CC4)CC3)CC2)ccc1Nc1ncc2c(n1)N(S(C)(=O)=O)c1ccccc1C(=O)N2C` [Compound 123, (R)-4-(4-((4-((1-(1-(3-ethoxy-4-((5-methyl-11-(methylsulfonyl)-6-oxo-6,11-dihydro-5H-benzo[e]pyrimido[5,4-b][1,4]diazepin-2-yl)amino)phenyl)piperidine-4-carbonyl)piperidin-4-yl)methyl)piperazin-1-yl)methyl)phenyl)-5-(5-ethyl-2,4-dihydroxyphenyl)-N-(1,1,1-trifluoropropan-2-yl)-4H-1,2,4-triazole-3-carboxamide] yielded an IC50 on HSP90α protein of 100 to 1000 nM. Besides, the ERBB2 degradation result with ERBB2 is on record as “B (DC50 = 100-1000 nM)”. Further, the EC50 in test [1] (Homo sapiens, MV4-11) was below 100 nM; in test [2] (Homo sapiens, U-87 MG, 72 h), 100 to 1000 nM.

With `CCOc1cc(N2CCC(C(=O)N3CCC(CN4CCN(Cc5ccc(-n6c(C(=O)N[C@@H](C)C(F)(F)F)nnc6-c6cc(CC)c(O)cc6O)cc5)CC4)CC3)CC2)ccc1Nc1ncc2c(n1)N(S(C)(=O)=O)c1ccccc1C(=O)N2C` [Compound 124, (S)-4-(4-((4-((1-(1-(3-ethoxy-4-((5-methyl-11-(methylsulfonyl)-6-oxo-6,11-dihydro-5H-benzo[e]pyrimido[5,4-b][1,4]diazepin-2-yl)amino)phenyl)piperidine-4-carbonyl)piperidin-4-yl)methyl)piperazin-1-yl)methyl)phenyl)-5-(5-ethyl-2,4-dihydroxyphenyl)-N-(1,1,1-trifluoropropan-2-yl)-4H-1,2,4-triazole-3-carboxamide], the IC50 on HSP90α protein is 100 to 1000 nM. In addition, in the test with ERBB2, the ERBB2 degradation result is “B (DC50 = 100-1000 nM)”. In addition, the EC50 is below 100 nM in test [1] (Homo sapiens, MV4-11) and 100 to 1000 nM in test [2] (Homo sapiens, U-87 MG, 72 h).

Regarding `CCOc1cc(N2CCC(C(=O)N3CCC(CN4CCN(Cc5ccc(-n6c(O)nnc6-c6cc(CC)c(O)cc6O)cc5)CC4)CC3)CC2)ccc1Nc1ncc2c(n1)N(S(C)(=O)=O)c1ccccc1C(=O)N2C` [Compound 070, 2-((2-ethoxy-4-(4-(4-((4-(4-(3-(5-ethyl-2,4-dihydroxyphenyl)-5-hydroxy-4H-1,2,4-triazol-4-yl)benzyl)piperazin-1-yl)methyl)piperidine-1-carbonyl)piperidin-1-yl)phenyl)amino)-5-methyl-11-(methylsulfonyl)-5,11-dihydro-6H-benzo[e]pyrimido[5,4-b][1,4]diazepin-6-one], the IC50 on HSP90α protein was 100 to 1000 nM. For the same compound, the ERBB2 degradation entry with ERBB2 was “B (DC50 = 100-1000 nM)”. In addition, the EC50 in test [1] (Homo sapiens, MV4-11) was below 100 nM; in test [2] (Homo sapiens, U-87 MG, 72 h), 100 to 1000 nM.

Turning to `CCOc1cc(N2CCC(C(=O)NCc3ccc(-n4c(O)nnc4-c4cc(C)c(O)cc4O)cc3)CC2)ccc1Nc1ncc2c(n1)N(C)c1ccccc1C(=O)N2C` [Compound 027, N-(4-(3-(2,4-dihydroxy-5-methylphenyl)-5-hydroxy-4H-1,2,4-triazol-4-yl)benzyl)-1-(4-((5,11-dimethyl-6-oxo-6,11-dihydro-5H-benzo[e]pyrimido[5,4-b][1,4]diazepin-2-yl)amino)-3-ethoxyphenyl)piperidine-4-carboxamide], the ERBB2 degradation result in the test with ERBB2 is reported as “C (DC50 > 1000 nM)”. Moreover, the EC50 in test [1] (Homo sapiens, MV4-11) was 100 to 1000 nM; in test [2] (Homo sapiens, U-87 MG, 72 h), above 1000 nM.

With `CCOc1cc(N2CCC(C(=O)NCc3ccc(CN4CCC(Cc5ccc(-n6c(C(=O)NC(C)C)nnc6-c6cc(C(C)C)c(O)cc6O)cc5)CC4)cc3)CC2)ccc1Nc1ncc2c(n1)N(C)c1ccccc1C(=O)N2C` [Compound 056, N-(4-((4-(4-(3-(2,4-dihydroxy-5-isopropylphenyl)-5-(isopropylcarbamoyl)-4H-1,2,4-triazol-4-yl)benzyl)piperidin-1-yl)methyl)benzyl)-1-(4-((5,11-dimethyl-6-oxo-6,11-dihydro-5H-benzo[e]pyrimido[5,4-b][1,4]diazepin-2-yl)amino)-3-ethoxyphenyl)piperidine-4-carboxamide], the ERBB2 degradation result in the test on ERBB2 is listed as “B (DC50 = 100-1000 nM)”. Moreover, the EC50 was below 100 nM in test [1] (Homo sapiens, MV4-11) and 100 to 1000 nM in test [2] (Homo sapiens, U-87 MG, 72 h).

With `CCCc1cc(-c2nnc(O)n2-c2ccc(CNC(=O)C3CCN(c4ccc(Nc5ncc6c(n5)N(C)c5ccccc5C(=O)N6C)c(OCC)c4)CC3)cc2)c(O)cc1O` [Compound 039, N-(4-(3-(2,4-dihydroxy-5-propylphenyl)-5-hydroxy-4H-1,2,4-triazol-4-yl)benzyl)-1-(4-((5,11-dimethyl-6-oxo-6,11-dihydro-5H-benzo[e]pyrimido[5,4-b][1,4]diazepin-2-yl)amino)-3-ethoxyphenyl)piperidine-4-carboxamide], in the test with ERBB2, the ERBB2 degradation entry was “B (DC50 = 100-1000 nM)”. Moreover, the EC50 in test [1] and in test [2] (72 hr) was 100 to 1000 nM each time.

As for `CCOc1cc(N2CCC(C(=O)NCc3ccc(-n4c(O)nnc4-c4cc(C(C)C)c(O)cc4O)cc3C(F)(F)F)CC2)ccc1Nc1ncc2c(n1)N(C)c1ccccc1C(=O)N2C` [Compound 030, N-(4-(3-(2,4-dihydroxy-5-isopropylphenyl)-5-hydroxy-4H-1,2,4-triazol-4-yl)-2-(trifluoromethyl)benzyl)-1-(4-((5,11-dimethyl-6-oxo-6,11-dihydro-5H-benzo[e]pyrimido[5,4-b][1,4]diazepin-2-yl)amino)-3-ethoxyphenyl)piperidine-4-carboxamide], the ERBB2 degradation result in the test on ERBB2 is reported as “B (DC50 = 100-1000 nM)”. Further, the EC50 in test [1] (Homo sapiens, MV4-11) was 100 to 1000 nM; in test [2] (Homo sapiens, U-87 MG, 72 h), above 1000 nM.

Consider `CCOc1cc(N2CCC(C(=O)NCc3ccc(-n4c(O)nnc4-c4cc(CC)c(O)cc4O)cc3F)CC2)ccc1Nc1ncc2c(n1)N(C)c1ccccc1C(=O)N2C` [Compound 037, 1-(4-((5,11-dimethyl-6-oxo-6,11-dihydro-5H-benzo[e]pyrimido[5,4-b][1,4]diazepin-2-yl)amino)-3-ethoxyphenyl)-N-(4-(3-(5-ethyl-2,4-dihydroxyphenyl)-5-hydroxy-4H-1,2,4-triazol-4-yl)-2-fluorobenzyl)piperidine-4-carboxamide], for which the ERBB2 degradation result with ERBB2 is recorded as “B (DC50 = 100-1000 nM)”. For the same compound, the EC50 lay in the range of 100 to 1000 nM in test [1] (Homo sapiens, MV4-11) and 100 to 1000 nM in test [2] (Homo sapiens, U-87 MG, 72 h).

`CCOc1cc(N2CCC(C(=O)N3CCN(C(=O)O[C@H]4CC[C@H](Nc5cc(-n6nc(C(F)(F)F)c7c6CC(C)(C)CC7=O)ccc5C(N)=O)CC4)CC3)CC2)ccc1Nc1ncc2c(n1)N(S(C)(=O)=O)c1ccccc1C(=O)N2C` [Compound 106, (1R,4R)-4-((2-carbamoyl-5-(6,6-dimethyl-4-oxo-3-(trifluoromethyl)-4,5,6,7-tetrahydro-1H-indazol-1-yl)phenyl)amino)cyclohexyl 4-(1-(3-ethoxy-4-((5-methyl-11-(methylsulfonyl)-6-oxo-6,11-dihydro-5H-benzo[e]pyrimido[5,4-b][1,4]diazepin-2-yl)amino)phenyl)piperidine-4-carbonyl)piperazine-1-carboxylate] showed a 50% inhibitory concentration (IC50) on HSP90α protein above 1000 nM. The EC50 in test [1] (Homo sapiens, MV4-11) was 100 to 1000 nM; in test [2] (Homo sapiens, U-87 MG, 72 h), above 1000 nM.

With “(1R,4R)-4-((2-carbamoyl-5-(6,6-dimethyl-4-oxo-3-(trifluoromethyl)-4,5,6,7-tetrahydro-1H-indazol-1-yl)phenyl)amino)cyclohexyl (3-(1-(4-((5,11-dimethyl-6-oxo-6,11-dihydro-5H-benzo[e]pyrimido[5,4-b][1,4]diazepin-2-yl)amino)-3-ethoxyphenyl)piperidine-4-carboxamido)propyl)carbamate [Compound 102]”, the IC50 on HSP90α protein is above 1000 nM. For the same compound, the EC50 in test [1] is 100 to 1000 nM; in test [2] (72 hr), above 1000 nM.
